Experiments:
[1] = test system: ornithine decarboxylase (ODC) induced by TPA in mouse epidermis; test: In vivo ODC assay: inhibition of TPA-induced ornithine decarboxylase activity in mouse epidermis; conditions: TPA-induced ODC activity in epidermis of CD-1 mice, single topical application of retinoid 30 to 60 min before TPA, skins collected 5 h after TPA; values normalized to TPA control of 10; X=CO2H
Procedure: An in vivo ODC assay was conducted using four configurational isomers of retinoid 7 with X=CO2 H to study their bioactivities with respect to prevention of tumors. The ODC assay measured the inhibition by retinoids of the induction of ornithine decarboxylase in mouse epidermis by phorbol ester (TPA), an indicator of retinoid potency as a chemopreventive agent.
A single application of TPA was made to the shaved backs of CD-1 mice 30 to 60 minutes after a single application of the test retinoid. Five hours after the application of TPA, the exposed skins from the back of the three animals in each group were collected, and the epidermal extracts prepared from each animal were pooled and assayed. In order to improve the counting efficiency of radio-labeled product formed in the assay, the specific activity of ^14 C-ornithine was increased five-fold; the assay was terminated by the addition of citric acid at 45 minutes to ensure linear kinetics.

[2] = molecular target: cellular retinoic acid binding protein (CRABP) from chick embryo skin; test: CRABP binding assay, I50 (dextran-coated charcoal); conditions: 50% inhibition of binding of 100 pmoles [3H] retinoic acid to CRABP, chick embryo skin extract (1 mg protein); X=CO2H
Procedure: A standard in vitro cellular retinoic acid binding protein (CRABP) assay was also conducted on the retinoids. The CRABP binding study measured the ability of retinoids to compete for the retinoic acid binding site on CRABP, also a good indicator of retinoid potency as a chemopreventive agent.
(§1) Aliquots (2 mg protein) of chick skin extracts were incubated with 300 pmoles of [^3 H] retinoic acid in the presence or absence of 100-fold molar excesses of the test compounds. The 2S CRABP peaks were determined from the radioactivity profiles obtained after sedimentation through 5 to 20% sucrose density gradients at 180,000×g for 18 hours (Sani et al., supra). […] Free radioactive retinoid was removed by absorption on dextran-coated charcoal. The I50 values of the test compounds were derived from the semilog plots of their molar concentrations versus the specifically bound [^3 H] retinoic acid to CRABP at the different concentrations of the test retinoids.

chick embryo skin CRABP = test: CRABP competition by sucrose density gradient sedimentation, 100-fold excess of retinoid; assay type: binding; conditions: 100-fold molar excess of test compound, 300 pmol [3H] retinoic acid, FIG. 1
Procedure: as §1

mouse skin papilloma = test: Mouse papilloma assay (tumor formation after DMBA initiation); assay type: in vivo; conditions: initiation with DMBA, X=CO2H
Source text: This assay measured the inhibition of tumor formation following initiation with dimethylbenz(a)anthracene (DMBA).

Compound	ODC Assay (nmol CO2/30 min./mg protein) [1]	IC50 [2] [nM]	inhibition of [3H] retinoic acid-binding to CRABP (relative binding affinity as compared to retinoic acid) (chick embryo skin CRABP) [%]	tumor production, % of controls (mouse skin papilloma)
CC1=C(C(C)C)/C(=C/C(C)=C/C=C/C(C)=C\C(=O)O)CCC1 [(13Z)-7]	1.0 nmol CO2/30 min./mg protein	500	70	
CC1=C(C(C)C)/C(=C/C(C)=C/C=C/C(C)=C/C(=O)O)CCC1 [(all E)-7]	0.5 nmol CO2/30 min./mg protein	400	100	20 % of controls
CC1=C(C(C)C)/C(=C/C(C)=C\C=C\C(C)=C\C(=O)O)CCC1 [(9Z)-7]	> 100 nmol CO2/30 min./mg protein	2800	0	
CC1=C(C(C)C)/C(=C/C(C)=C\C=C\C(C)=C/C(=O)O)CCC1 [(9Z,13Z)-7]	> 100 nmol CO2/30 min./mg protein	4900	0	
CC1=C(/C=C/C(C)=C/C=C/C(C)=C/C(=O)O)C(C)(C)CCC1 [all-E retinoic acid, reference compound]	0.5 nmol CO2/30 min./mg protein	900	100	11 % of controls

Source: patent publication US5094783A, “Retinoid compounds” (UAB Research Foundation, priority 1990, dated 1992)
